Experimental data: patent US11845752B2, “Substituted imidazo[1,5-a]pyrazines for the treatment of hepatitis B” (ALIGOS THERAPEUTICS, INC., priority 2020, dated 2023)

These compounds were tested on HBV (assay: HBV-DNA antiviral assay using HepG2.117 cells (intracellular HBV DNA by qPCR)). Conditions: HBV DNA inhibition, 3 days incubation, listed as 4h.
Assay type: cell-based, HBV genotype D
In short: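 Read-outs: cell-lysate HBV DNA copies by qPCR (interpolated from gBlock standard) and parallel cellular ATP luminescence for CC50, both normalised to 2% DMSO controls and fitted by non-linear regression. HepG2.117 Tet-off genotype D HBV cells, induced by doxycycline removal, exposed 3 days to 4-fold serial dilutions.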

`CC1Cn2c(c(C(=O)NCc3ccccc3-c3ccncn3)n(-c3ccc(-n4cccn4)cc3)c2=O)CN1C(=O)c1ccc(Br)c(Cl)c1` (single isomer, unassigned) [Compound 4b, 7-(4-bromo-3-chloro-benzoyl)-6-methyl-3-oxo-2-(4-pyrazol-1-ylphenyl)-N-[(2-pyrimidin-4-ylphenyl)methyl]-6,8-dihydro-5H-imidazo[1,5-a]pyrazine-1-carboxamide] gave an EC50 of less than 50 nM.

Same assay, conditions: HBV DNA inhibition, 3 days incubation, read-out: EC50

Compared with `Cc1cnn(-c2ccccc2CNC(=O)c2c3n(c(=O)n2-c2ccc(OC4CC4)cc2)CC(C)N(C(=O)c2ccc(Br)c(Cl)c2)C3)c1` (single isomer, unassigned) [Compound 6b, 7-(4-bromo-3-chloro-benzoyl)-2-[4-(cyclopropoxy)phenyl]-6-methyl-N-[[2-(4-methylpyrazol-1-yl)phenyl]methyl]-3-oxo-6,8-dihydro-5H-imidazo[1,5-a]pyrazine-1-carboxamide], `CC1Cn2c(c(C(=O)NCc3ccccc3-c3ccnc(N)n3)n(-c3ccc(OC4CC4)cc3)c2=O)CN1C(=O)c1ccc(Br)c(Cl)c1` (single isomer, unassigned) [Compound 11b, N-[[2-(2-aminopyrimidin-4-yl)phenyl]methyl]-7-(4-bromo-3-chloro-benzoyl)-2-[4-(cyclopropoxy)phenyl]-6-methyl-3-oxo-6,8-dihydro-5H-imidazo[1,5-a]pyrazine-1-carboxamide] is higher in EC50: less than 50 nM for the first, 50 to 500 nM for the second. The first is the more potent here.

`CC1Cn2c(c(C(=O)NCc3ccccc3-c3cccnn3)n(-c3ccc(OC4CC4)cc3)c2=O)CN1C(=O)c1ccc(Br)c(Cl)c1` (single isomer, unassigned) [Compound 7b, 7-(4-bromo-3-chloro-benzoyl)-2-[4-(cyclopropoxy)phenyl]-6-methyl-3-oxo-N-[(2-pyridazin-3-ylphenyl)methyl]-6,8-dihydro-5H-imidazo[1,5-a]pyrazine-1-carboxamide] and `CC1Cn2c(c(C(=O)NCc3ccccc3-c3ccncn3)n(-c3ccc(OC4CC4)cc3)c2=O)CN1C(=O)c1ccc(Br)c(Cl)c1` (single isomer, unassigned) [Compound 9b, 7-(4-bromo-3-chloro-benzoyl)-2-[4-(cyclopropoxy)phenyl]-6-methyl-3-oxo-N-[(2-pyrimidin-4-ylphenyl)methyl]-6,8-dihydro-5H-imidazo[1,5-a]pyrazine-1-carboxamide] cannot be ordered by EC50: less than 50 nM for the first, less than 50 nM for the second.

First: CC1Cn2c(c(C(=O)NCc3ccccc3-c3cc(N)ncn3)n(-c3ccc(OC4CC4)cc3)c2=O)CN1C(=O)c1ccc(Br)c(Cl)c1 (single isomer, unassigned) [Compound 8b, N-[[2-(6-aminopyrimidin-4-yl)phenyl]methyl]-7-(4-bromo-3-chloro-benzoyl)-2-[4-(cyclopropoxy)phenyl]-6-methyl-3-oxo-6,8-dihydro-5H-imidazo[1,5-a]pyrazine-1-carboxamide]
Second: CC1Cn2c(c(C(=O)NCc3ccccc3-c3ccc(N)nn3)n(-c3ccc(OC4CC4)cc3)c2=O)CN1C(=O)c1ccc(Br)c(Cl)c1 (single isomer, unassigned) [Compound 10a, N-[[2-(6-aminopyridazin-3-yl)phenyl]methyl]-7-(4-bromo-3-chloro-benzoyl)-2-[4-(cyclopropoxy)phenyl]-6-methyl-3-oxo-6,8-dihydro-5H-imidazo[1,5-a]pyrazine-1-carboxamide]
The EC50 of the first is lower: less than 50 nM for the first, 500 to 5000 nM for the second. The first is the more potent here.

First: CC1Cn2c(c(C(=O)NCc3ccccc3-c3ccc(N)nn3)n(-c3ccc(OC4CC4)cc3)c2=O)CN1C(=O)c1ccc(Br)c(Cl)c1 (single isomer, unassigned) [Compound 10b, N-[[2-(6-aminopyridazin-3-yl)phenyl]methyl]-7-(4-bromo-3-chloro-benzoyl)-2-[4-(cyclopropoxy)phenyl]-6-methyl-3-oxo-6,8-dihydro-5H-imidazo[1,5-a]pyrazine-1-carboxamide]
Second: Cc1cc(C(=O)N2Cc3c(C(=O)NCc4ccccc4-c4ccncn4)n(-c4ccc(OC5CC5)cc4)c(=O)n3CC2C)ccc1Br (single isomer, unassigned) [Compound 12b, 7-(4-bromo-3-methyl-benzoyl)-2-[4-(cyclopropoxy)phenyl]-6-methyl-3-oxo-N-[(2-pyrimidin-4-ylphenyl)methyl]-6,8-dihydro-5H-imidazo[1,5-a]pyrazine-1-carboxamide]
The EC50 of the first is higher: 50 to 500 nM for the first, less than 50 nM for the second. The second is the more potent here.

`CC1Cn2c(c(C(=O)NCc3ccccc3-c3ccncn3)n(-c3ccc(OC4CC4)cc3)c2=O)CN1C(=O)c1ccc(Br)c(C(F)(F)F)c1` (single isomer, unassigned) [Compound 13b, 7-[4-bromo-3-(trifluoromethyl)benzoyl]-2-[4-(cyclopropoxy)phenyl]-6-methyl-3-oxo-N-[(2-pyrimidin-4-ylphenyl)methyl]-6,8-dihydro-5H-imidazo[1,5-a]pyrazine-1-carboxamide] and `CC1Cn2c(c(C(=O)NCc3ccccc3-c3ccncn3)n(-c3ccc(OC4CC4)cc3)c2=O)CN1C(=O)c1ccc(Br)c(C(F)F)c1` (single isomer, unassigned) [Compound 16b, 7-[4-bromo-3-(difluoromethyl)benzoyl]-2-[4-(cyclopropoxy)phenyl]-6-methyl-3-oxo-N-[(2-pyrimidin-4-ylphenyl)methyl]-6,8-dihydro-5H-imidazo[1,5-a]pyrazine-1-carboxamide] cannot be ordered by EC50: less than 50 nM for the first, less than 50 nM for the second.

Same assay, conditions: Hepatitis B virus, HepG2.117, 72 h, HBV DNA inhibition, 3 days incubation, read-out: EC50

First: Cc1nnc(-c2ccccc2CNC(=O)c2c3n(c(=O)n2-c2ccc(OC4CC4)cc2)CC(C)N(C(=O)c2ccc(Br)c(C#N)c2)C3)o1 (single isomer, unassigned) [Compound 5a, (6S*)-7-(4-bromo-3-cyano-benzoyl)-2-[4-(cyclopropoxy)phenyl]-6-methyl-N-[[2-(5-methyl-1,3,4-oxadiazol-2-yl)phenyl]methyl]-3-oxo-6,8-dihydro-5H-imidazo[1,5-a]pyrazine-1-carboxamide]
Second: Cc1cc(C(=O)N2Cc3c(C(=O)NCc4ccccc4-c4ccncn4)n(-c4ccc(OC5CC5)cc4)c(=O)n3CC2C)ccc1Br (single isomer, unassigned) [Compound 12a, 7-(4-bromo-3-methyl-benzoyl)-2-[4-(cyclopropoxy)phenyl]-6-methyl-3-oxo-N-[(2-pyrimidin-4-ylphenyl)methyl]-6,8-dihydro-5H-imidazo[1,5-a]pyrazine-1-carboxamide]
The EC50 of the first is higher: 500 to 5000 nM for the first, 50 to 500 nM for the second. The second is the more potent here.

`Cc1cnn(-c2ccccc2CNC(=O)c2c3n(c(=O)n2-c2ccc(OC4CC4)cc2)CC(C)N(C(=O)c2ccc(Br)c(Cl)c2)C3)c1` (single isomer, unassigned) [Compound 6a, 7-(4-bromo-3-chloro-benzoyl)-2-[4-(cyclopropoxy)phenyl]-6-methyl-N-[[2-(4-methylpyrazol-1-yl)phenyl]methyl]-3-oxo-6,8-dihydro-5H-imidazo[1,5-a]pyrazine-1-carboxamide] and `COc1cnn(-c2ccccc2CNC(=O)c2c3n(c(=O)n2-c2ccc(OC4CC4)cc2)CC(C)N(C(=O)c2ccc(Br)c(Cl)c2)C3)c1` (single isomer, unassigned) [Compound 17a, 7-(4-bromo-3-chloro-benzoyl)-2-[4-(cyclopropoxy)phenyl]-N-[[2-(4-methoxypyrazol-1-yl)phenyl]methyl]-6-methyl-3-oxo-6,8-dihydro-5H-imidazo[1,5-a]pyrazine-1-carboxamide] fall in the same range of EC50: 50 to 500 nM for the first, 50 to 500 nM for the second.

`CC1Cn2c(c(C(=O)NCc3ccccc3-c3cccnn3)n(-c3ccc(OC4CC4)cc3)c2=O)CN1C(=O)c1ccc(Br)c(Cl)c1` (single isomer, unassigned) [Compound 7a, 7-(4-bromo-3-chloro-benzoyl)-2-[4-(cyclopropoxy)phenyl]-6-methyl-3-oxo-N-[(2-pyridazin-3-ylphenyl)methyl]-6,8-dihydro-5H-imidazo[1,5-a]pyrazine-1-carboxamide] and `CC1Cn2c(c(C(=O)NCc3ccccc3-c3ccncn3)n(-c3ccc(OC4CC4)cc3)c2=O)CN1C(=O)c1ccc(Br)c(Cl)c1` (single isomer, unassigned) [Compound 9a, 7-(4-bromo-3-chloro-benzoyl)-2-[4-(cyclopropoxy)phenyl]-6-methyl-3-oxo-N-[(2-pyrimidin-4-ylphenyl)methyl]-6,8-dihydro-5H-imidazo[1,5-a]pyrazine-1-carboxamide] fall in the same range of EC50: 50 to 500 nM for the first, 50 to 500 nM for the second.

First: CC1Cn2c(c(C(=O)NCc3ccccc3-c3cc(N)ncn3)n(-c3ccc(OC4CC4)cc3)c2=O)CN1C(=O)c1ccc(Br)c(Cl)c1 (single isomer, unassigned) [Compound 8a, N-[[2-(6-aminopyrimidin-4-yl)phenyl]methyl]-7-(4-bromo-3-chloro-benzoyl)-2-[4-(cyclopropoxy)phenyl]-6-methyl-3-oxo-6,8-dihydro-5H-imidazo[1,5-a]pyrazine-1-carboxamide]
Second: CC1Cn2c(c(C(=O)NCc3ccccc3-c3ccnc(N)n3)n(-c3ccc(OC4CC4)cc3)c2=O)CN1C(=O)c1ccc(Br)c(Cl)c1 (single isomer, unassigned) [Compound 11a, N-[[2-(2-aminopyrimidin-4-yl)phenyl]methyl]-7-(4-bromo-3-chloro-benzoyl)-2-[4-(cyclopropoxy)phenyl]-6-methyl-3-oxo-6,8-dihydro-5H-imidazo[1,5-a]pyrazine-1-carboxamide]
The EC50 of the first is higher: 50 to 500 nM for the first, less than 50 nM for the second. The second is the more potent here.

`CC1Cn2c(c(C(=O)NCc3ccccc3-c3ccncn3)n(-c3ccc(OC4CC4)cc3)c2=O)CN1C(=O)c1ccc(Br)c(C(F)(F)F)c1` (single isomer, unassigned) [Compound 13a, 7-[4-bromo-3-(trifluoromethyl)benzoyl]-2-[4-(cyclopropoxy)phenyl]-6-methyl-3-oxo-N-[(2-pyrimidin-4-ylphenyl)methyl]-6,8-dihydro-5H-imidazo[1,5-a]pyrazine-1-carboxamide] and `CC1Cn2c(c(C(=O)NCc3ccccc3-c3ccncn3)n(-c3ccc(OC4CC4)cc3)c2=O)CN1C(=O)c1ccc(Br)c(C(F)F)c1` (single isomer, unassigned) [Compound 16a, 7-[4-bromo-3-(difluoromethyl)benzoyl]-2-[4-(cyclopropoxy)phenyl]-6-methyl-3-oxo-N-[(2-pyrimidin-4-ylphenyl)methyl]-6,8-dihydro-5H-imidazo[1,5-a]pyrazine-1-carboxamide] fall in the same range of EC50: 50 to 500 nM for the first, 50 to 500 nM for the second.
